Data reported in paper PMC9247194, “Mapping of the sGC Stimulator BAY 41-2272 Binding Site on H-NOX Domain and Its Regulation by the Redox State of the Heme” (Frontiers in Cell and Developmental Biology, 2022).

Target: T1, Ns H-NOX (Nostoc sp. PCC 7120 = FACHB-418, UniProt A0ACD6B960, C139A)
T1 construct: gene alr2278
Assay: 1H-15N HSQC NMR titration (chemical shift perturbation)
Type: binding
Settings: 298 K; heme-bound, no NO; surface site next to heme; one KD per perturbed residue

T1 sequence (A0ACD6B960 entry or part of it C139A): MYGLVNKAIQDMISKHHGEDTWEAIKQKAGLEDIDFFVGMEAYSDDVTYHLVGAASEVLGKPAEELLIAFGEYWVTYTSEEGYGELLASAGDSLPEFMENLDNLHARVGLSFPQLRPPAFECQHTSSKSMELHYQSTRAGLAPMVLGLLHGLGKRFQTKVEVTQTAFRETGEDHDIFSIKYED

In the case of Nc1nc(-c2nn(Cc3ccccc3F)c3ncccc23)ncc1C1CC1 [BAY 41-2272], the KD is reported as “yielding the binding constant (K D ) for each residue”.
